Measurements: patent publication US8778871B2 (Takeda Pharmaceutical Company Limited, priority 2004, dated 2014)
Non-standard residues stand in square brackets, D forms with d. Residues, ends and D or L forms follow the SMILES beside them. *: point of attachment. X9 = CC(C)C[C@H](NCCN*)C(=O)N[C@@H](CCCNC(=N)N)C(=O)N[C@@H](Cc1ccccc1)C(N)=O; Arg(Me) = CNC(=N)NCCC[C@H](N)C(=O)O; 2Pal = N[C@@H](Cc1ccccn1)C(=O)O; d3Pal = N[C@H](Cc1cccnc1)C(=O)O; Tos = Cc1ccc(S(=O)(=O)*)cc1; azaGly = NNC(=O)O

Biological target: T1, hOT7T175 (Homo sapiens, UniProt Q969F8)
T1 construct: expressed in transfected cells
Assay: Intracellular Ca ion level-increasing activity using FLIPR (180 seconds; specific activity to Metastin (1-54))
Assay type: cell-based
Details: hOT7T175/CHO, change in intracellular calcium ion level for 180 seconds, Tables 21-23
Description: In accordance with the method described in JPA 2000-312590, the intracellular Ca ion level-increasing activity was measured using FLIPR. […]
The intracellular Ca ion level-increasing activity of the synthetic peptide in hOT7T175/CHO was determined using FLIPR (Molecular Devices, Inc.).
hOT7T175/CHO was subcultured in DMEM supplemented with 10% dialyzed fetal bovine serum (hereinafter abbreviated as dFBS) and provided for the experiment (hereinafter abbreviated as 10% dFBS/DMEM). The hOT7T175/CHO was suspended in 10% dFBS-DMEM in 15×10^4 cells/ml. The suspension was inoculated on a 96-well plate for FLIPR (Black Plate Clear Bottom, Coster, Inc.) at 200 μl each (3.0×10^4 cells/200 μl), followed by incubation at 37° C. overnight in a 5% CO2 incubator. The cells thus incubated were used (hereinafter simply referred to as the cell plate). Then, 21 ml of HANKS/HBSS (9.8 g of HANKS', 0.35 g of sodium hydrogencarbonate, 20 ml of 1M HEPES; after adjusting the pH to 7.4 with 1N sodium hydroxide, the mixture was subjected to sterilization through a filter), 210 μl of […] Probenecid and 210 μl of fetal bovine serum (FBS) were mixed (HANKS/HBSS-Probenecid-FBS).
Furthermore, 2 vials of Fluo3-AM (50 μg/vial) were dissolved in 21 μL of dimethylsulfoxide and 21 μL of 20% Pluronic acid. The resulting solution was added to and mixed with 10 ml of HANKS/HBSS-Probenecid-FBS described above. After the culture medium was removed, the mixture was dispensed onto the cell plate in 100 μl each/well, followed by incubation at 37° C. for an hour in a 5% CO2 incubator (pigment loading). The peptide was dissolved in dimethylsulfoxide in 1×10^−3 M. The peptide solution was diluted with HANKS'/HBSS containing 2.5 mM Probenecid and 0.2% BSA. The dilution was transferred to a 96-well plate for FLIPR (V-Bottom plate, Coster, Inc.) (hereinafter referred to as a sample plate). After completion of the pigment loading onto the cell plate, the cell plate washed 4 times with wash buffer, which was obtained by adding 2.5 mM Probenecid to HANKS'/HBSS, using a plate washer to leave 100 μL of wash buffer after the washing. The cell plate and the sample plate were set in FLIPR and 0.05 ml of a sample from the sample plate was automatically transferred to the cell plate with the FLIPR device to promote the cell response. A change in intracellular calcium ion level for 180 seconds was measured with passage of time.

T1 sequence (Q969F8 whole entry L364H): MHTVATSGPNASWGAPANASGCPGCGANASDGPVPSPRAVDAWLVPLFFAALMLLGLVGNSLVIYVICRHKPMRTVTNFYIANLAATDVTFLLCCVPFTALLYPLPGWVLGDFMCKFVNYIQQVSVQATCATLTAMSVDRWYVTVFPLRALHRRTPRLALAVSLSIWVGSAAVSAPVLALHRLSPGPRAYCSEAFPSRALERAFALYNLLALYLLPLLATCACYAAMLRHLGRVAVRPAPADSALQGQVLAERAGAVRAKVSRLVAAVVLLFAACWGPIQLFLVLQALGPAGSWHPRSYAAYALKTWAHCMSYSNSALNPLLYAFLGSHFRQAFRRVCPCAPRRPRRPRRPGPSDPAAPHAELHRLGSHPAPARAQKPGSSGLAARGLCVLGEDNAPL

| Compound | intracellular Ca ion level-increasing activity [specific activity to Metastin (1-54)] |
| --- | --- |
| 4-Pyridinecarbonyl-Phe-AzaGly-Leu-Har-Trp-NH2 [Compound No. 478] | ⅓ |
| Tos-F[azaGly]L[Arg(Me)]F-NH2 [Compound No. 349] | ⅕ |
| Benzoyl-Pya(4)-AzaGly-Leu-Arg(Me)-Trp-NH2 [Compound No. 442] | ½ |
| Propionyl-Phe-AzaGly-Leu-Arg(Me)-Trp-NH2 [Compound No. 437] | 2 |
| D-Tyr-D-Pya(4)-Asn-Ser-Phe-AzaGly-Leu-Orn-Phe-NH2 [Compound No. 486] | ½ |
| (2S)-2-Benzoyloxy-3-phenylpropionyl-AzaGly-Leu-Arg(Me)-Trp-NH2 [Compound No. 380] | 5 |
| CNC(=N)NCCC[C@H](NC(=O)[C@H](CC(C)C)NC(=O)CNC(=O)[C@H](Cc1ccccn1)NC(=O)[C@H](CO)NC(=O)[C@H](CC(N)=O)NC(=O)[C@H](Cc1c[nH]c2ccccc12)NC(=O)[C@H](CC(N)=O)NC(=O)[C@H](N)Cc1ccc(O)cc1)C(=O)N[C@@H](Cc1ccccc1)C(N)=O [Compound No. 281, D-Tyr-Asn-Trp-Asn-Ser-Pya(2)-Gly-Leu-Arg(Me)-Phe-NH2] (H-[dY]NWNS[2Pal]GL[Arg(Me)]F-NH2) | ½ |
| (2S)-2-acetoxy-3-phenylpropionyl-AzaGly-Leu-Arg(Me)-Trp-NH2 [Compound No. 373] | 2 |
| CNC(=N)NCCC[C@H](NC(=O)[C@H](CC(C)C)NC(=O)NNC(=O)[C@H](Cc1ccccc1)NC(=O)[C@H](CO)NC(=O)[C@H](CC(N)=O)NC(=O)[C@H](Cc1ccccc1)NC(=O)[C@H](N)Cc1cccnc1)C(=O)N[C@@H](Cc1ccccc1)C(N)=O [Compound No. 256, D-Pya(3)-Phe-Asn-Ser-Phe-AzaGly-Leu-Arg(Me)-Phe-NH2] (H-[d3Pal]FNSF[azaGly]L[Arg(Me)]F-NH2) | 1 |
| (R)-3-hydroxy-2-methylpropionyl-Phe-AzaGly-Leu-Arg(Me)-Trp-NH2 [Compound No. 452] | 1 |
| 4-Pyridinecarbonyl-Phe-AzaGly-Leu-Orn-Trp-NH2 [Compound No. 477] | ⅕ |
| Benzylphenethylcarbamoyl-AzaGly-Leu-Arg(Me)-Trp-NH2 [Compound No. 417] | 1 |
| CC(C)C[C@H](NCCNC(=O)[C@H](Cc1ccccc1)NC(=O)[C@H](CO)NC(=O)[C@H](CC(N)=O)NC(=O)[C@H](Cc1c[nH]c2ccccc12)NC(=O)[C@H](CC(N)=O)NC(=O)[C@@H](N)Cc1ccc(O)cc1)C(=O)N[C@@H](CCCNC(=N)N)C(=O)N[C@@H](Cc1ccccc1)C(N)=O [Compound No. 261, Tyr-Asn-Trp-Asn-Ser-Phe-GlyΨ(CH2NH)Leu-Arg-Phe-NH2] (H-YNWNSF-X9) | 1 |
| Trifluoroacetyl-Phe-AzaGly-Leu-Arg(Me)-Trp-NH2 [Compound No. 448] | 3 |
| n-Hexanoyl-Phe-AzaGly-Leu-Arg(Me)-Trp-NH2 [Compound No. 366] | ⅓ |
| Tos-Phe-AzaGly-Leu-Arg(Me)-Trp-NH2 [Compound No. 368] | ½ |
